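Five concentrations, 48 hours, 96-well plates. At the GI50, growth is halved. TGI: concentration producing complete growth inhibition.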
Assays:
Test in all cases: inhibition of tumour cell growth, NCI panel, 48 h
U251 CNS = system: U251 CNS
LOX IMVI melanoma = system: LOX IMVI melanoma
COLO 205 colon = system: COLO 205 colon
PC-3 prostate = system: PC-3 prostate
SN12C renal = system: SN12C renal
MOLT-4 leukemia = system: MOLT-4 leukemia
RXF 393 renal = system: RXF 393 renal
UACC-257 melanoma = system: UACC-257 melanoma
NCI-H23 lung = system: NCI-H23 lung
A498 renal = system: A498 renal
SF-295 CNS = system: SF-295 CNS
SK-OV-3 ovarian = system: SK-OV-3 ovarian
NCI-H460 lung = system: NCI-H460 lung
SW-620 colon = system: SW-620 colon
UO-31 renal = system: UO-31 renal
MALME-3M melanoma = system: MALME-3M melanoma
OVCAR-4 ovarian = system: OVCAR-4 ovarian
MCF7 breast = system: MCF7 breast
SNB-19 CNS = system: SNB-19 CNS
786-0 renal = system: 786-0 renal
SK-MEL-2 melanoma = system: SK-MEL-2 melanoma
EKVX NSCLC = system: EKVX NSCLC
ACHN renal = system: ACHN renal
SK-MEL-5 melanoma = system: SK-MEL-5 melanoma
CAKI-1 renal = system: CAKI-1 renal
NCI-H522 lung = system: NCI-H522 lung
UACC-62 melanoma = system: UACC-62 melanoma
OVCAR-8 ovarian = system: OVCAR-8 ovarian
MDA-MB-435 = system: MDA-MB-435

In the case of O=C(Nc1ccc(Cc2ccccc2)cc1)Nc1nn(C(=O)Nc2ccc(Cc3ccccc3)cc2)c2ccccc12, the GI50 (U251 CNS) is reported as 70.2 µM, the TGI (U251 CNS) is reported as greater than 100 µM and the GI50 (LOX IMVI melanoma) is reported as 71 µM. It also gave a TGI (LOX IMVI melanoma) greater than 100 µM, a GI50 (COLO 205 colon) greater than 100 µM and a TGI (COLO 205 colon) greater than 100 µM. It also gave a GI50 (PC-3 prostate) greater than 100 µM, a TGI (PC-3 prostate) greater than 100 µM and a GI50 (SN12C renal) greater than 100 µM. The TGI (SN12C renal) was greater than 100 µM, the GI50 (MOLT-4 leukemia) was 63.2 µM and the TGI (MOLT-4 leukemia) was greater than 100 µM. The GI50 (RXF 393 renal) was 30.4 µM, the TGI (RXF 393 renal) was greater than 100 µM and the GI50 (UACC-257 melanoma) was greater than 100 µM. For the same compound, the TGI (UACC-257 melanoma) was greater than 100 µM, the GI50 (NCI-H23 lung) was greater than 100 µM and the TGI (NCI-H23 lung) was greater than 100 µM. The GI50 (A498 renal) was 82.4 µM, the TGI (A498 renal) was greater than 100 µM and the GI50 (SF-295 CNS) was greater than 100 µM. The TGI (SF-295 CNS) was greater than 100 µM, the GI50 (SK-OV-3 ovarian) was greater than 100 µM and the TGI (SK-OV-3 ovarian) was greater than 100 µM. It also gave a GI50 (NCI-H460 lung) greater than 100 µM, a TGI (NCI-H460 lung) greater than 100 µM and a GI50 (SW-620 colon) greater than 100 µM. It also gave a TGI (SW-620 colon) greater than 100 µM, a GI50 (UO-31 renal) greater than 100 µM and a TGI (UO-31 renal) greater than 100 µM. For the same compound, the GI50 (MALME-3M melanoma) was greater than 100 µM, the TGI (MALME-3M melanoma) was greater than 100 µM and the GI50 (OVCAR-4 ovarian) was greater than 100 µM. For the same compound, the TGI (OVCAR-4 ovarian) was greater than 100 µM, the GI50 (MCF7 breast) was greater than 100 µM and the TGI (MCF7 breast) was greater than 100 µM. For the same compound, the GI50 (SNB-19 CNS) was greater than 100 µM, the TGI (SNB-19 CNS) was greater than 100 µM and the GI50 (786-0 renal) was greater than 100 µM. The TGI (786-0 renal) was greater than 100 µM, the GI50 (SK-MEL-2 melanoma) was greater than 100 µM and the TGI (SK-MEL-2 melanoma) was greater than 100 µM. It also gave a GI50 (EKVX NSCLC) greater than 100 µM, a TGI (EKVX NSCLC) greater than 100 µM and a GI50 (ACHN renal) greater than 100 µM. For the same compound, the TGI (ACHN renal) was greater than 100 µM, the GI50 (SK-MEL-5 melanoma) was greater than 100 µM and the TGI (SK-MEL-5 melanoma) was greater than 100 µM. The GI50 (CAKI-1 renal) was greater than 100 µM, the TGI (CAKI-1 renal) was greater than 100 µM and the GI50 (NCI-H522 lung) was greater than 100 µM. It also gave a TGI (NCI-H522 lung) greater than 100 µM, a GI50 (UACC-62 melanoma) of 41.6 µM and a TGI (UACC-62 melanoma) greater than 100 µM. It also gave a GI50 (OVCAR-8 ovarian) greater than 100 µM, a TGI (OVCAR-8 ovarian) greater than 100 µM and a GI50 (MDA-MB-435) greater than 100 µM.
